Assay results as given in patent US7186701B2, “Dehydrating agent and method for dehydrating moist article using the agent and dehydrated article obtained by the method” (Kabushiki Kaisha Hayashibara Seibutsu Kagaku Kenkyujo, priority 2001, dated 2007).

Tests used:
[1] = test system: Eubacterium aerofaciens ATCC 25986; assay: Assimilation test; assay type: cell-based; settings: 0.5% saccharide in PYF medium, 37° C., four days, anaerobic
[2] = test system: Bifidobacterium adolescentis JCM 1275; assay: Assimilation test; assay type: cell-based; settings: 0.5% saccharide in PYF medium, 37° C., four days, anaerobic
[3] = test system: Lactobacillus acidophilus JCM 1132; assay: Assimilation test; assay type: cell-based; settings: 0.5% saccharide in PYF medium, 37° C., four days, anaerobic
[4] = Inclusion action; assay type: physicochemical
Method: To 100 g aliquots of the aqueous solution was added 2 g of methanol, 3 g of ethanol, or 4.6 g acetic acid to be included by the cyclotetrasaccharide. Thereafter, each of the resulting solutions was filtered to remove non-inclusion products, and the filtrates were dried in vacuo. As a control, similar inclusion products were prepared by using “ISOELITE™ P”, a branched cyclodextrin commercialized by Maruha K.K., Tokyo, Japan, which were known to have inclusion ability.
To measure the amount of the inclusion products in the resulting lyophilized powders, one gram of each of the powders was dissolved in five milliliters of water and extracted after admixing with five milliliters of diethylether. The extraction was repeated, and the resulting extracts were quantified on gas chromatography.

[5] = test system: internal content of rat cecum; assay: Fermentation test; assay type: in vitro ADME
Method: The internal content of rat cecum was collected by anesthetizing a Wister male rat with ether, anatomizing the rat, collecting the internal content under anaerobic conditions, and suspending the resultant with 4-fold volumes of a 0.1 M aqueous solution of sodium bicarbonate. The cyclotetrasaccharide was added to the internal content of rat cecum in an amount of about 7% by weight, and the levels of cyclotetrasaccharide remained just after and 12 hours after the addition of the internal content were quantified on gas chromatography.

[6] = test system: Escherichia coli IFO 3301; assay: Assimilation test; assay type: cell-based; settings: 0.5% saccharide in PYF medium, 37° C., four days, anaerobic
[7] = test system: Clostridium perfringens JCM 3816; assay type: cell-based; settings: 0.5% saccharide in PYF medium, 37° C., four days, anaerobic

## OCC1OC2OCC3O[C@H](O[C@H]4C(O)C(CO)OC(OCC5O[C@H](O[C@@H](C1O)C2O)C(O)C(O)[C@@H]5O)C4O)C(O)C(O)[C@@H]3O (stereo partly drawn) [cyclotetrasaccharide, cyclo{→6)-α-D-glucopyranosyl-(1→3)-α-D-glucopyranosyl-(1→6)-α-D-glucopyranosyl-(1→3)-α-D-glucopyranosyl-(1→}]
[1]
  Assimilability: − (judged as negative (−) when the post culture had a pH of 6.0 or higher)
[2]
  Assimilability: − (judged as negative (−) when the post culture had a pH of 6.0 or higher)
[3]
  Assimilability: − (judged as negative (−) when the post culture had a pH of 6.0 or higher)
[4]
  inclusion ability relative to that of the branched cyclodextrin by weight: about 2 folds
[4]; inclusion product Acetic acid
  Inclusion amount (mg/g lyophilized powder): 67.74 mg/g lyophilized powder
[4]; inclusion product Ethanol
  Inclusion amount (mg/g lyophilized powder): 17.26 mg/g lyophilized powder
[4]; inclusion product Methanol
  Inclusion amount (mg/g lyophilized powder): 6.71 mg/g lyophilized powder
[5]; 12 hours after the addition
  cyclotetrasaccharide remained intact: 93%
  level of cyclotetrasaccharide remained: 63.0 mg per one gram of the internal content of rat cecum
[5]; just after the addition
  level of cyclotetrasaccharide remained: 68.0 mg per one gram of the internal content of rat cecum
[6]
  Assimilability: − (judged as negative (−) when the post culture had a pH of 6.0 or higher)
[7]
  Assimilability: − (judged as negative (−) when the post culture had a pH of 6.0 or higher)
